Where a SMILES comes first, the peptide text is derived from it. Bridges are numbered along the chain shown (N, C = ends). Where no end group is shown, it is not given here. [ ]: non-standard residue; d: D form. SeMet = C[Se]CC[C@H](N)C(=O)O
How the values were obtained:
human PAC1 receptor = biological target: T1, human PAC1 receptor (Homo sapiens, UniProt P41586); experiment: LANCE Ultra cAMP accumulation antagonist assay in SHSY-5Y cells; assay type: cell-based;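 note: inhibition of cAMP accumulation evoked by PAC1 agonist at its EC80 in SHSY-5Y cells endogenously expressing receptor, 30 min preincubation then 15 min agonist, TR-FRET readout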
T1 construct: SHSY-5Y (human neuroblastoma cell line) and RG-2 (rat glioma cell line) cells endogenously express human and rat PAC1 receptors, respectively; endogenous in cells; host or cells: SHSY-5Y human neuroblastoma cells
T1 sequence (P41586 21-468): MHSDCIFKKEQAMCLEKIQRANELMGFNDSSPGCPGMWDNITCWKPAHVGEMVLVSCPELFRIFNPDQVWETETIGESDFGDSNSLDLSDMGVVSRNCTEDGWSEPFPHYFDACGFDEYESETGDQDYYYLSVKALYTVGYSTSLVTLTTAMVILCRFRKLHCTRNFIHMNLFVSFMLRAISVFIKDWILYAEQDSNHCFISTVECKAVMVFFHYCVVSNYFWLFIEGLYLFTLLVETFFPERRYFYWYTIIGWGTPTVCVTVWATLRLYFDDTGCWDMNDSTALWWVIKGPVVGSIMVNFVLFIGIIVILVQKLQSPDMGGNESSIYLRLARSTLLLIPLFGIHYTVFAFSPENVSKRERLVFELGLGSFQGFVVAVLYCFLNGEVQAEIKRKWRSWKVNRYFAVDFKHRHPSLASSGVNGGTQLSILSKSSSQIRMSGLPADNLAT

rat PAC1 receptor = biological target: T2, rat PAC1 receptor (Rattus norvegicus, UniProt P32215); experiment: LANCE Ultra cAMP accumulation antagonist assay in RG-2 cells; assay type: cell-based;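 note: RG-2 rat glioma cells endogenously expressing PAC1, test peptide preincubated 30 min, then PAC1 agonist added at its EC80 for 15 min, cAMP accumulation read by LANCE Ultra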
T2 construct: SHSY-5Y (human neuroblastoma cell line) and RG-2 (rat glioma cell line) cells endogenously express human and rat PAC1 receptors, respectively; endogenous in cells; host or cells: RG-2 rat glioma cells
T2 sequence (P32215 20-523): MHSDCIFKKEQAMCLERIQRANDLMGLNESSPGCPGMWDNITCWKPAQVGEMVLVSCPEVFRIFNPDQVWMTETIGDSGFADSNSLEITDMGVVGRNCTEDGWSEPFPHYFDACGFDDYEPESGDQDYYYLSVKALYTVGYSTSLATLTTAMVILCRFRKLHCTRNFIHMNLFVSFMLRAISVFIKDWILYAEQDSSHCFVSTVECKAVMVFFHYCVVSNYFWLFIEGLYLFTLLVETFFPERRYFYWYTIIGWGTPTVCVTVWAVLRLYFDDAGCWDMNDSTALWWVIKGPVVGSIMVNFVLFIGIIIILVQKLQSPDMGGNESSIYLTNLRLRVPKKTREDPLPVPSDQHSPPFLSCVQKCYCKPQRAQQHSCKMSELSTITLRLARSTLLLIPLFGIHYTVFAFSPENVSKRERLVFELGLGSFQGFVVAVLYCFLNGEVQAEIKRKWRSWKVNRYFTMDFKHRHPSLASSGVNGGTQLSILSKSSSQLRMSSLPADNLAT
Procedure: In order to determine the potency of peptide antagonists at the PAC1 receptor, functional cAMP accumulation assays using LANCE Ultra cAMP assay kit to measure the agonist and antagonist activity of PAC1 peptides were used. SHSY-5Y (human neuroblastoma cell line) and RG-2 (rat glioma cell line) cells endogenously express human and rat PAC1 receptors, respectively. Agonist activity of PAC1 peptides was tested by incubating with SHSY-5Y at 2,000 cells per well or RG-2 at 5,000 cells per well for 15 minutes at room temperature. PAC1 receptor agonist PACAP38 or maxadilan was included as a positive control. The reaction was stopped by adding detection mixture, europium (Eu) chelate-labeled cAMP tracer and cAMP-specific monoclonal antibodies labeled with the ULight™ dye, to all wells followed by a 60-minute incubation at room temperature. The assay plates were then read on an EnVision instrument at an emission wavelength of 665 and 615 nm and data were analyzed using Genedata Screener or GraphPad Prism software. A similar procedure was used in the antagonist assays by using a fixed concentration of PAC1 agonist. The concentrations of agonists were chosen based on their ECK) values at PAC1 receptors in SHSY-5Y or RG-2 cells. SHSY-5Y or RG-2 cells were added into 96-well half-area white plates. Serially diluted PAC1 peptides at ten concentrations were added and incubated for 30 minutes at room temperature. PAC1 agonist at EC80 concentration was then added and further incubated for 15 minutes at room temperature. The reaction was stopped by adding detection mixture to all wells followed by a 60-minute incubation at room temperature. The assay plates were read and analyzed the same way as that of agonist assay. Cells, agonists, and PAC1 peptides were prepared in freshly made assay buffer (F-12, 0.5 mM IBMX, 0.1 or 0.4% BSA (pH 7.4)). Detection mixture was made by mixing a 1/50 dilution of the Eu-cAMP tracer stock solution in cAMP Detection Buffer and a 1/150 dilution of the ULight-anti-cAMP stock solution in cAMP Detection Buffer. Europium (Eu) chelate-labeled cAMP tracer, cAMP-specific monoclonal antibodies labeled with the ULight™ dye, BSA, and detection buffer were provided in LANCE Ultra cAMP Kit from PerkinElmer

For “CDATCQFRKAIDDCQKQAHHSNVPGSVFKACMKQKKKEFKA-NH2 (disulfide 1-5, 14-31) [compound 214]”, the IC50 (human PAC1 receptor) was 1 to 100 nM and the IC50 (rat PAC1 receptor) was 0.01 to 1 nM.
For “CDATCQFRKAIDDCARQAHHSNVPGSVWKACMKQKKKEWKAGH (disulfide 1-5, 14-31) [SEQ ID NO 105]”, the IC50 (human PAC1 receptor) was 0.01 to 1 nM and the IC50 (rat PAC1 receptor) was 0.01 to 1 nM.
`CC[C@H](C)[C@H](NC(=O)[C@H](C)NC(=O)[C@H](CCCCN)NC(=O)[C@H](CCCNC(=N)N)NC(=O)[C@H](Cc1ccccc1)NC(=O)[C@H](CCC(N)=O)NC(=O)[C@@H]1CSSC[C@H](N)C(=O)N[C@@H](CC(=O)O)C(=O)N[C@@H](C)C(=O)N[C@@H]([C@@H](C)O)C(=O)N1)C(=O)N[C@@H](CC(=O)O)C(=O)N[C@@H](CC(=O)O)C(=O)N[C@H]1CSSC[C@@H](C(=O)N[C@@H](CCSC)C(=O)N[C@@H](CCCCN)C(=O)N[C@@H](CCC(N)=O)C(=O)N[C@@H](CCCCN)C(=O)N[C@@H](CCCCN)C(=O)N[C@@H](CCCCN)C(=O)N[C@@H](CCC(=O)O)C(=O)N[C@@H](Cc2c[nH]c3ccccc23)C(=O)N[C@@H](CCCCN)C(=O)N[C@@H](C)C(=O)NCC(N)=O)NC(=O)[C@H](C)NC(=O)[C@H](CCCCN)NC(=O)[C@H](Cc2ccccc2)NC(=O)[C@H](C(C)C)NC(=O)[C@H](CO)NC(=O)[C@H](CO)NC(=O)[C@H](Cc2c[nH]cn2)NC(=O)[C@H](Cc2c[nH]c3ccccc23)NC(=O)[C@H](CO)NC(=O)[C@H](CCCNC(=N)N)NC(=O)[C@H](Cc2ccc(O)cc2)NC(=O)[C@H](Cc2ccc(O)cc2)NC1=O` [compound 61] (H-CDATCQFRKAIDDCYYRSWHSSVFKACMKQKKKEWKAG-NH2; disulfide 1-5, 14-27) was tested, and the IC50 (human PAC1 receptor) was 0.01 to 1 nM and the IC50 (rat PAC1 receptor) was 0.01 to 1 nM.
`CC[C@H](C)[C@H](NC(=O)[C@H](C)NC(=O)[C@H](CCCCN)NC(=O)[C@H](CCCNC(=N)N)NC(=O)[C@H](Cc1ccccc1)NC(=O)[C@H](CCC(N)=O)NC(=O)[C@@H]1CSSC[C@H](N)C(=O)N[C@@H](CC(=O)O)C(=O)N[C@@H](C)C(=O)N[C@@H]([C@@H](C)O)C(=O)N1)C(=O)N[C@@H](CC(=O)O)C(=O)N[C@@H](CC(=O)O)C(=O)N[C@H]1CSSC[C@@H](C(=O)N[C@@H](CCSC)C(=O)N[C@@H](CCCCN)C(=O)N[C@@H](CCC(N)=O)C(=O)N[C@@H](CCCCN)C(=O)N[C@@H](CCCCN)C(=O)N[C@@H](CCCCN)C(=O)N[C@@H](CCC(=O)O)C(=O)N[C@@H](Cc2c[nH]c3ccccc23)C(=O)N[C@@H](CCCCN)C(=O)N[C@@H](C)C(=O)NCC(=O)N[C@@H](Cc2ccc(O)cc2)C(=O)O)NC(=O)[C@H](C)NC(=O)[C@H](CCCCN)NC(=O)[C@H](Cc2ccccc2)NC(=O)[C@H](C(C)C)NC(=O)[C@H](CO)NC(=O)[C@H](CO)NC(=O)[C@H](Cc2c[nH]cn2)NC(=O)[C@H](Cc2c[nH]cn2)NC(=O)[C@H](C)NC(=O)[C@H](CCC(N)=O)NC(=O)[C@H](CCCNC(=N)N)NC(=O)[C@H](C(C)C)NC1=O` [compound 3] (H-CDATCQFRKAIDDCVRQAHHSSVFKACMKQKKKEWKAGY-OH; disulfide 1-5, 14-27) showed an IC50 (human PAC1 receptor) of 0.01 to 1 nM and an IC50 (rat PAC1 receptor) of 0.01 to 1 nM.
In the case of “CDATCQFRKAIDDCARQAHHSNVPGSVFKAC[SeMet]KQKKKEWKAGH (disulfide 1-5, 14-31) [compound 7]”, the IC50 (human PAC1 receptor) is reported as 0.01 to 1 nM and the IC50 (rat PAC1 receptor) is reported as 0.01 to 1 nM.
In the case of “CDATCQFRKAIDDCMLLSWHSNVPGSVFKACMKQKKKEFKAG-NH2 (disulfide 1-5, 14-31) [compound 132]”, the IC50 (human PAC1 receptor) is reported as 0.01 to 1 nM and the IC50 (rat PAC1 receptor) is reported as less than 0.01 nM.
`CC[C@H](C)[C@H](NC(=O)[C@H](C)NC(=O)[C@H](CCCCN)NC(=O)[C@H](CCCNC(=N)N)NC(=O)[C@H](Cc1ccccc1)NC(=O)[C@H](CCC(N)=O)NC(=O)[C@@H]1CSSC[C@H](N)C(=O)N[C@@H](CC(=O)O)C(=O)N[C@@H](C)C(=O)N[C@@H]([C@@H](C)O)C(=O)N1)C(=O)N[C@@H](CC(=O)O)C(=O)N[C@@H](CC(=O)O)C(=O)N[C@H]1CSSC[C@@H](C(=O)N[C@@H](CCSC)C(=O)N[C@@H](CCCCN)C(=O)N[C@@H](CCC(N)=O)C(=O)N[C@@H](CCCCN)C(=O)N[C@@H](CCCCN)C(=O)N[C@@H](CCCCN)C(=O)N[C@@H](CCC(=O)O)C(=O)N[C@@H](Cc2c[nH]c3ccccc23)C(=O)N[C@@H](CCCCN)C(=O)N[C@@H](C)C(=O)NCC(=O)N[C@@H](Cc2c[nH]cn2)C(=O)O)NC(=O)[C@H](C)NC(=O)[C@H](CCCCN)NC(=O)[C@H](Cc2ccccc2)NC(=O)[C@H](C(C)C)NC(=O)[C@H](CO)NC(=O)[C@H](CO)NC(=O)[C@H](Cc2c[nH]cn2)NC(=O)[C@H](Cc2c[nH]cn2)NC(=O)[C@H](C)NC(=O)[C@H](CCC(N)=O)NC(=O)[C@H](CCCCN)NC(=O)[C@H](C)NC1=O` [compound 26] (H-CDATCQFRKAIDDCAKQAHHSSVFKACMKQKKKEWKAGH-OH; disulfide 1-5, 14-27) was tested, and the IC50 (human PAC1 receptor) was 0.01 to 1 nM and the IC50 (rat PAC1 receptor) was 0.01 to 1 nM.
“CDATCQFRKAIDDCQKQAHHSNVPGSVFKACLKQKKKEFKAG-NH2 (disulfide 1-5, 14-31) [compound 143]” was tested, and the IC50 (human PAC1 receptor) was 0.01 to 1 nM and the IC50 (rat PAC1 receptor) was 0.01 to 1 nM.
Work on “CDATCQFRKAIDDCFYQAWHSNVPGSVWKACMKQKKKEFKAG-NH2 (disulfide 1-5, 14-31) [compound 139]” yielded an IC50 (human PAC1 receptor) of 0.01 to 1 nM and an IC50 (rat PAC1 receptor) of 0.01 to 1 nM.
“CDATCQFRKAIDDCARQAHHSNVPGSVFKACMKQKKKEYKAGH (disulfide 1-5, 14-31) [compound 10]” gave an IC50 (human PAC1 receptor) of 0.01 to 1 nM and an IC50 (rat PAC1 receptor) of 0.01 to 1 nM.
“CDATCQFRKAIDDCQKQAHHSNVPGSVFKACMKQRKKRWLAG-NH2 (disulfide 1-5, 14-31) [compound 126]” was tested, and the IC50 (human PAC1 receptor) was 0.01 to 1 nM and the IC50 (rat PAC1 receptor) was 0.01 to 1 nM.
Compound “CDATCQFRKAIDDCAKQAHHSNVPGSVFKACIKQKKKEFKAG-NH2 (disulfide 1-5, 14-31) [compound 14]” has an IC50 (human PAC1 receptor) of 0.01 to 1 nM and an IC50 (rat PAC1 receptor) of 0.01 to 1 nM.
“CDATCQFRKAIDDCDRQAHHSNVPGSVFKACMKQKKKEWKAN (disulfide 1-5, 14-31) [compound 159]” showed an IC50 (human PAC1 receptor) of 1 to 100 nM and an IC50 (rat PAC1 receptor) of 0.01 to 1 nM.
`CC[C@H](C)[C@H](NC(=O)[C@H](C)NC(=O)[C@H](CCCCN)NC(=O)[C@H](CCCNC(=N)N)NC(=O)[C@H](Cc1ccccc1)NC(=O)[C@H](CCC(N)=O)NC(=O)[C@@H]1CSSC[C@H](N)C(=O)N[C@@H](CC(=O)O)C(=O)N[C@@H](C)C(=O)N[C@@H]([C@@H](C)O)C(=O)N1)C(=O)N[C@@H](CC(=O)O)C(=O)N[C@@H](CC(=O)O)C(=O)N[C@H]1CSSC[C@@H](C(=O)N[C@@H](CCSC)C(=O)N[C@@H](CCCCN)C(=O)N[C@@H](CCC(N)=O)C(=O)N[C@@H](CCCCN)C(=O)N[C@@H](CCCCN)C(=O)N[C@@H](CCCCN)C(=O)N[C@@H](CCC(=O)O)C(=O)N[C@@H](Cc2ccccc2)C(=O)N[C@@H](CCCCN)C(N)=O)NC(=O)[C@H](CCC(=O)O)NC(=O)[C@H](CCCCN)NC(=O)[C@H](Cc2ccccc2)NC(=O)[C@H](C(C)C)NC(=O)[C@H](CO)NC(=O)[C@H](CC(N)=O)NC(=O)CNC(=O)[C@H](C(C)C)NC(=O)[C@H](CC(N)=O)NC(=O)[C@H](CO)NC(=O)[C@H](Cc2c[nH]cn2)NC(=O)[C@H](Cc2c[nH]cn2)NC(=O)[C@H](C)NC(=O)[C@H](CCC(N)=O)NC(=O)[C@H](CCCCN)NC(=O)[C@H](CCC(N)=O)NC1=O` [compound 275] (H-CDATCQFRKAIDDCQKQAHHSNVGNSVFKECMKQKKKEFK-NH2; disulfide 1-5, 14-31) gave an IC50 (human PAC1 receptor) of 1 to 100 nM and an IC50 (rat PAC1 receptor) of 1 to 100 nM.
With `CC[C@H](C)[C@H](NC(=O)[C@H](C)NC(=O)[C@H](CCCCN)NC(=O)[C@H](CCCNC(=N)N)NC(=O)[C@H](Cc1ccccc1)NC(=O)[C@H](CCC(N)=O)NC(=O)[C@@H]1CSSC[C@H](N)C(=O)N[C@@H](CC(=O)O)C(=O)N[C@@H](C)C(=O)N[C@@H]([C@@H](C)O)C(=O)N1)C(=O)N[C@@H](CC(=O)O)C(=O)N[C@@H](CC(=O)O)C(=O)N[C@H]1CSSC[C@@H](C(=O)N[C@@H](CCSC)C(=O)N[C@@H](CCCCN)C(=O)N[C@@H](CCC(N)=O)C(=O)N[C@@H](CCCCN)C(=O)N[C@@H](CCCCN)C(=O)N[C@@H](CCCCN)C(=O)N[C@@H](CCC(=O)O)C(=O)N[C@@H](Cc2c[nH]c3ccccc23)C(=O)N[C@@H](CCCCN)C(=O)N[C@@H](C)C(=O)NCC(=O)N[C@@H](Cc2c[nH]cn2)C(=O)O)NC(=O)[C@H](C)NC(=O)[C@H](CCCCN)NC(=O)[C@H](Cc2ccccc2)NC(=O)[C@H](C(C)C)NC(=O)[C@H](CO)NC(=O)[C@H](CO)NC(=O)[C@H](Cc2c[nH]cn2)NC(=O)[C@H](Cc2ccc(O)cc2)NC(=O)[C@H](C)NC(=O)[C@H](CCC(N)=O)NC(=O)[C@H](CCCNC(=N)N)NC(=O)[C@H](C)NC1=O` [compound 27] (H-CDATCQFRKAIDDCARQAYHSSVFKACMKQKKKEWKAGH-OH; disulfide 1-5, 14-27) the IC50 (human PAC1 receptor) was 0.01 to 1 nM and the IC50 (rat PAC1 receptor) was 0.01 to 1 nM.
With “CDATCQFRKAIDDCVFWAAHSNVPGSVFKACMKQKKKEFKAG-NH2 (disulfide 1-5, 14-31) [compound 136]” the IC50 (human PAC1 receptor) was 0.01 to 1 nM and the IC50 (rat PAC1 receptor) was 0.01 to 1 nM.

Reference: patent US20210395313A1, “PEPTIDE PAC1 ANTAGONISTS” (AMGEN INC., priority 2017, published 2021)
